Entries after “also recorded” stand apart in the source; their conditions may differ.

In one assay the test system is KOPTK1. The experiment in a line: Annexin V apoptosis, KOPTK1. The following applies: 10 μM, 7 days. The format is cell-based, human. How it is done:
(§1) FIGS. 6A-6D show 6-(4-Tert-Butylphenoxy)Pyridin-3-Amine (I3) induces G0/G1 cell cycle arrest and apoptosis in human T cell acute lymphoblastic leukemia cell lines and human breast cancer cell line HCC1187. […] Percentage of Annexin V positive (apoptotic) cell population was measured using flow cytometry.
(§2) To quantitate the percentage of apoptotic cells, AnnexinV and 7AAD staining was performed. Thymic cells were suspended in 300 μl of 1× AnnexinV binding buffer (BD Biosciences, San Diego, USA) and incubated with 10 μl of AnnexinV-Cy5 antibody and 10 μl of 7AAD (BD Biosciences, San Diego, USA). Samples were incubated for 15 minutes at room temperature. FACS was performed with in one hour of antibody staining.
(§3) This 6-(4-Tert-Butylphenoxy)Pyridin-3-Amine (I3) mediated proliferative arrest could be due to induction of apoptosis or cell cycle arrest during different phases of cell cycle. […] Therefore to further elucidate the mechanisms responsible for 6-(4-Tert-Butylphenoxy)Pyridin-3-Amine (I3) mediated proliferative arrest cell cycle and apoptosis analyses were carried out. […] To investigate cell death, Annexin V staining was performed and proportion of apoptotic (AnnexinV positive) cell population was determined by flow cytometry analyses after 7 days of treatment.

A further assay has as its system TALL1. The experiment in a line: Annexin V apoptosis, TALL1. The format is cell-based, human. The following applies: 10 μM, 7 days. How it is done:
as §1, §2, §3

The subject of assay [1] is MMTV-ErbB2 mouse mammary tumors. Put plainly: MMTV-ErbB2 mammary tumor transplantation in FVB mice. The format is in vivo. The following applies: 25 mg/kg on alternate days, established tumors; preliminary results. The protocol: FIGS. 9A-9B show 6-(4-Tert-Butylphenoxy)Pyridin-3-Amine (I3) treatment blocks MMTV-ErbB2 mouse mammary tumors. […] Tubulin served as a loading control. […] Tumor formation was monitored on a regular basis. Once the tumor developed to a volume of 100-300 mm^3′ mice were treated with oil (n=2) or 25 mg/kg of 6-(4-Tert-Butylphenoxy)Pyridin-3-Amine (I3) (n=2). Tumor volume was measured every 6-7 days.
Primary MMTV-ErbB2/Neu mammary tumors were harvested from the mice and a single cell suspension was prepared. 1×10^6 primary tumor cells were suspended in 50 μl of 1×PBS and kept on ice. Three weeks old recipient FVB mice were cleared of their endogenous epithelium and tumor cells were injected into the empty fat pad. Tumor development in the recipient mice was monitored and tumor volumes were measured using digital caliper. Tumor volumes were calculated using following formula: […]length×(width)^2. Once the tumor reached a volume of about 100 mm^3, recipient mice were treated with oil or 25 mg/kg of I3 on alternate days.
In human breast cancer, high levels of Notch1 and Jagged1 proteins correlated with a poor survival of breast cancer patients. In addition, activation of Notch signalling in human breast cancer also facilitates bone and lung metastasis. […] The tumor volume was measured and recorded on regular intervals.

Consider `CC(C)(C)c1ccc(Oc2ccc(N)cn2)cc1` [I3, 6-(4-Tert-Butylphenoxy)Pyridin-3-Amine], for which the “apoptosis (Annexin V positive cells)” value with KOPTK1 and in the assay with TALL1 was “induces significant apoptosis” throughout. Besides, the “tumor volume / tumor progression” value in assay [1] was “caused significant tumor growth retardation; also recorded: exhibited a slow tumor progression compared to oil treated mice; also recorded: led to a block in tumor progression in the mice”.

The values are drawn from patent publication US10054581B1, “Inhibitors of notch signaling pathway and use thereof in treatment of cancers” (Ecole Polytechnique Federale de Lausanne (EPFL), priority 2011, dated 2018).
